Values joined by “and” are separate entries in the source; they are usually repeats but may differ in a detail not shown here. Equal entries are not always repeated. Where two headings read alike, the source gives them in different places.
What was measured:
testicular cancer = conditions: cited from earlier work
[1] = Solubility in deuterated solvents for 195Pt NMR; type: physicochemical; conditions: for 195Pt NMR spectra
Procedure: The FTIR spectra of the ligands and their platinum(II) complexes were carried out on a Nicolet 6700 FTIR spectrophotometer using KBr pellets in the range between 4000 to 400 cm^−1. The ^1H, ^13C and ^77Se NMR spectra were recorded in DMSO-d6 on a Jeol JNM 500 NMR spectrophotometer operating at 500.01, 125.65 and 95.35 MHz respectively. The spectral conditions were; 32 K data points, 0.963 s acquisition time, 3.2 s pulse delay and a 5.75 μs pulse width for ^1H NMR, and 32 K data points, 0.963 s acquisition time, 2.0 s pulse delay and a 5.12 μs pulse width for ^13C NMR. The chemical shifts were measured relative to TMS. The ^77Se NMR chemical shifts were recorded relative to external reference (NaHSeO3 in D2O) at 1308.00 ppm, using 2.0 s pulse delay and using 0.311 s acquisition time. The ^195Pt NMR spectra were recorded in methanol-d4 using a Varian 400 MHz NMR spectrometer at 298 K. The spectra were referenced with respect to potassium tetrachloridoplatinate(II) in D2O at 0 ppm.
The ^195Pt NMR spectroscopy was also employed for thorough characterization of the prepared complexes, as the number of signals and their chemical shift in the ^195Pt NMR spectra provide efficient evidence about the purity and, also generally, the coordination environment of the metal. […]

[2] = system: human ovarian carcinoma A2780 cells; assay: MTT in vitro cytotoxicity assay, A2780; type: cell-based; conditions: triplicate, tested up to 50 μM
Procedure: (§1) All the human cancer cell lines were purchased from European Collection of Cell Cultures (ECACC). The cells were cultivated according to the manufacturer's manuals and maintained in an atmosphere containing 5% CO2 in a humidified incubator at 37° C. The experimental procedure was performed according to the literature. See R. […], PLoS One, 2014, 9(9), e107373, incorporated herein by reference in its entirety. All the experiments were conducted in triplicate. The results were expressed as ICso values along with standard deviations (SD). The significance of the differences between the compared groups of results was assessed by the ANOVA analysis, with p<0.05 considered to be significant (QC Expert 3.2, Statistical software, TriloByte Ltd.). See QC Expert 3.2, Statistical software, TriloByte Ltd., Pardubice, Czech Republic. 2009, incorporated herein by reference in its entirety.

[3] = system: ovarian carcinoma resistant to cisplatin (A2780R) cells; assay: MTT in vitro cytotoxicity assay, A2780R; type: cell-based, human; conditions: triplicate, tested up to 50 μM, read-out: In vitro cytotoxicity IC50 ± S.D., A2780R
Procedure: as §1

[4] = system: human breast adenocarcinoma (MCF7) cells; assay: MTT in vitro cytotoxicity assay, MCF7; type: cell-based; conditions: triplicate, tested up to 50 μM, read-out: In vitro cytotoxicity IC50 ± S.D., MCF7
Procedure: as §1

[5] = system: prostate carcinoma (22Rv1) cells; assay: MTT in vitro cytotoxicity assay, 22Rv1; type: cell-based, human; conditions: for IC50: triplicate, tested up to 50 μM, read-out: In vitro cytotoxicity IC50 ± S.D., 22RvI
Procedure: as §1

[6] = ESI-MS stability and interaction with L-cysteine and reduced glutathione; type: physicochemical; conditions: methanol:water (1:1, v/v), complex 10 μM, Cys 290 μM, GSH 6 μM, immediately vs 24 h after preparation
Procedure: In order to describe the behavior of complexes in different media, i.e. to better understand their stability in protogenic media and interactions of the complexes with sulfur-containing biomolecules under physiological conditions, mass spectrometric experiments involving the interacting systems, containing the mixture of L-cysteine and reduced L-glutathione, were performed.
The electrospray-ionization mass spectrometry (ESI-MS) was used to perform the interaction experiments of the selected two cytotoxic platinum(II) complexes 4 and 5 using the ThermoLCQ Fleet Ion Trap mass spectrometer, in positive ionization mode. […] The measured solutions were injected into the mass spectrometer using the HPLC autosampler (Ultimate 3000, Dionex) in 10 μL spikes. The mass spectra were recorded in the range of 50-1400 m/z. […]
The stability in methanol:water (1:1, v/v) solutions as compared to the pure methanol and interactions of complexes in methanol:water (1:1, v/v)solutions containing the complexes 4 and 5 at the final concentrations of 10 μM and the physiological levels of L-cysteine (Cys) and L-glutathione (GSH), at 290, and 6 μM concentration, respectively, were measured by ESI+MS immediately after preparation and 24 h after preparation. […] The spectra measured immediately after preparation contained mostly the ionic species similar to those identified in reference methanol solutions. […]

[7] = read-out: In vitro cytotoxicity IC50 ± S.D., A2780

| SMILES | Cure rate in testicular cancer (testicular cancer; treatment of testicular cancer) | Cure rate in testicular cancer, tumors discovered early (testicular cancer; when tumors are discovered early) | Solubility in methanol-d4 and deuterated N,N-dimethylformamide [1] | IC50 [2, 7] | IC50 [3] | IC50 [4] | IC50 [5] | Ligand exchange reactions with L-cysteine and reduced glutathione [6] | Cytotoxicity against 22Rv1 cells (in words) [5] | IC50 ([2]; listed as 5, read-out: In vitro cytotoxicity IC50 ± S.D., A2780) |
| --- | --- | --- | --- | --- | --- | --- | --- | --- | --- | --- |
| N.N.[Cl][Pt][Cl] [Cisplatin] | over 90% | ~100% | – | – | – | – | – | – | – | – |
| NC(N)=[Se].NC(N)=[Se].NC(N)=[Se].NC(N)=[Se].[Cl-].[Cl-].[Pt+2] [Complex 1] | – | – | insufficient solubility | – | – | – | – | – | – | – |
| [Cl-].[Cl-].[Pt+2].[Se]=C1NCCN1.[Se]=C1NCCN1.[Se]=C1NCCN1.[Se]=C1NCCN1 [Complex 2] | – | – | insufficient solubility | > 50 µM | > 50 µM | > 50 µM | > 50 µM | – | – | – |
| CCN1CCNC1=[Se].CCN1CCNC1=[Se].CCN1CCNC1=[Se].CCN1CCNC1=[Se].[Cl-].[Cl-].[Pt+2] [Complex 3, [Pt(N-ethylimidazolidine-2-selenone)4]Cl2] | – | – | – | > 50 µM | > 50 µM | > 50 µM | > 50 µM | – | – | – |
| CCCN1CCNC1=[Se].CCCN1CCNC1=[Se].CCCN1CCNC1=[Se].CCCN1CCNC1=[Se].[Cl-].[Cl-].[Pt+2] [Complex 4] | – | – | – | 44.7 µM and 30.8 µM | > 50 µM | > 50 µM | 46.2 ± 3.8 µM | relatively rapid | some cytotoxicity | – |
| CC(C)N1CCNC1=[Se].CC(C)N1CCNC1=[Se].CC(C)N1CCNC1=[Se].CC(C)N1CCNC1=[Se].[Cl-].[Cl-].[Pt+2] [Complex 5, [Pt(N-isopropylimidazolidine-2-selenone)4]Cl2] | – | – | – | 44.7 µM | > 50 µM | > 50 µM | > 50 µM | relatively rapid | – | 30.8 µM |
| [Cl-].[Cl-].[Pt+2].[Se]=C1NCCCN1.[Se]=C1NCCCN1.[Se]=C1NCCCN1.[Se]=C1NCCCN1 [Complex 6] | – | – | – | > 50 µM | > 50 µM | > 50 µM | > 50 µM | – | – | – |
| [Cl-].[Cl-].[Pt+2].[Se]=C1NCCCCN1.[Se]=C1NCCCCN1.[Se]=C1NCCCCN1.[Se]=C1NCCCCN1 [Complex 7] | – | – | – | > 50 µM | > 50 µM | > 50 µM | > 50 µM | – | – | – |

— patent US20190117667A1, “ANTICANCER ACTIVITY OF PLATINUM(II) TETRASELENONE COMPLEXES” (King Fahd University of Petroleum and Minerals, priority 2017, published 2019)
